Data on 26 molecules can be found in US10798941B2, “Microbiocidal oxadiazole derivatives” (SYNGENTA PARTICIPATIONS AG, priority 2016, dated 2020).

For data set [1], the system named is Glomerella Lagenarium (Colletotrichum Lagenarium). Kind of data set: Glomerella lagenarium (Colletotrichum lagenarium) liquid culture / cucumber / preventative (anthracnose). Type of data set: cell-based. The settings on record: Colletotrichum orbiculare; 20 ppm in the applied formulation; liquid culture in PDB, 24° C., inhibition of growth measured photometrically 3 to 4 days after application, vs untreated; read-out: disease control. The procedure, abridged:
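Conidia from cryogenic storage were mixed into potato dextrose broth. This was added to compound diluted from DMSO into 0.025% Tween20, tested at 20 ppm. Plates were incubated in the dark at 24 °C and 96% relative humidity, and growth was read photometrically after 2–7 days as % activity versus untreated check.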

In data set [2] the test system is Puccinia recondita f. Sp. Tritici. The data set can be described thus: Puccinia recondita f. sp. tritici / wheat / leaf disc preventative (brown rust). It counts as in vivo. The conditions noted are these: foliar, 168 h, 200 ppm in the applied formulation, wheat leaf segments cv. Kanzler, preventative, inoculated 1 day after application, assessed 7 to 9 days after application, vs untreated, read-out: disease control. The gist of the method:
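Wheat cv. Kanzler leaf segments on agar were sprayed with formulated compound in water, then inoculated with spores 1 day later. Incubated at 19° C, 75% rh, 12 h light/12 h dark; percent disease control versus untreated scored 7 to 9 days after application.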

Data set [3] has the same test system. Kind of data set: Puccinia recondita f. sp. tritici / wheat / leaf disc curative (brown rust). Type of data set: in vivo. The conditions noted are these: foliar, 144 h, 200 ppm in the applied formulation, wheat leaf segments cv. Kanzler, applied 1 day after inoculation, assessed 6 to 8 days after application, vs untreated, read-out: disease control. The procedure, abridged:
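Read-out is percent disease control relative to untreated segments, assessed 6 to 8 days after treatment once check disease is adequate. Kanzler wheat leaf segments on agar receive fungal spores, then test compound (DMSO stock diluted in 0.025% Tween20 or water) 1 day later, under 19° C and 75% relative humidity.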

For the next data set, the system named is Phakopsora pachyrhizi. The data set can be described thus: Phakopsora pachyrhizi / soybean / leaf disc preventative (Asian soybean rust). It counts as in vivo. The settings on record: foliar, 288 h, 200 ppm in the applied formulation, soybean leaf disks, inoculated one day after application, assessed 12 to 14 days after application, vs untreated, read-out: disease control. The procedure, abridged: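 Read-out is percent disease control relative to untreated check discs, assessed once untreated discs show adequate disease, 12 to 14 days after application. Compounds, tested at 200 ppm in the applied formulation, are sprayed onto soybean leaf discs one day before inoculation with a spore suspension.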

Take `CCc1cccc(CC)c1-n1ncc(-c2cn(Cc3ccc(-c4noc(C(F)(F)F)n4)cc3)nn2)c1C` [Compound 1.31, 3-[4-[[4-[1-(2,6-diethylphenyl)-5-methyl-pyrazol-4-yl]triazol-1-yl]methyl]phenyl]-5-(trifluoromethyl)-1,2,4-oxadiazole]: the melting point – broadly, the temperature, or range, at which the solid turns liquid – was in the range of 157.6 to 161.9 °C. In the case of `COC(=O)c1ncn(Cc2ccc(-c3noc(C(F)(F)F)n3)cc2)n1` [Compound 1.37, methyl 1-[[4-[5-(trifluoromethyl)-1,2,4-oxadiazol-3-yl]phenyl]methyl]-1,2,4-triazole-3-carboxylate], the melting point is 174 to 177.2 °C. In data set [1], the inhibition of growth at 20 ppm is not below 80%. Besides, the pest or weed control at 200 ppm in data set [2] is not below 80%. In turn, `FC(F)(F)c1ncn(Cc2ccc(-c3noc(C(F)(F)F)n3)cc2)n1` [Compound 1.39] came in with a melting point of 68.2 to 70.1 °C. Same read-out and setting: the result for `N#Cc1ncnn1Cc1ccc(-c2noc(C(F)(F)F)n2)cc1` [Compound 1.41, 2-[[4-[5-(trifluoromethyl)-1,2,4-oxadiazol-3-yl]phenyl]methyl]-1,2,4-triazole-3-carbonitrile] reads 120 to 124 °C. With `COc1cc(-c2noc(C(F)(F)F)n2)ccc1Cn1cncn1` [Compound 1.97, 3-[3-methoxy-4-(1,2,4-triazol-1-ylmethyl)phenyl]-5-(trifluoromethyl)-1,2,4-oxadiazole], the melting point was 102 to 106 °C. In addition, in data set [1], the inhibition of growth at 20 ppm is not below 80%. Further, the pest or weed control at 200 ppm in data set [3] was not below 80%. In turn, `CN(C)C(=O)c1cnn(Cc2ccc(-c3noc(C(F)(F)F)n3)cc2)c1` [Compound 1.149, N,N-dimethyl-1-[[4-[5-(trifluoromethyl)-1,2,4-oxadiazol-3-yl]phenyl]methyl]pyrazole-4-carboxamide] yielded a melting point of 124 to 129 °C. In the case of `CNC(=O)c1cnn(Cc2ccc(-c3noc(C(F)(F)F)n3)cc2)c1` [Compound 1.150, N-methyl-1-[[4-[5-(trifluoromethyl)-1,2,4-oxadiazol-3-yl]phenyl]methyl]pyrazole-4-carboxamide], the melting point is 156 to 161 °C. In turn, `COC(=O)c1cnn(Cc2ccc(-c3noc(C(F)(F)F)n3)cc2)c1` [Compound 1.248, methyl 1-[[4-[5-(trifluoromethyl)-1,2,4-oxadiazol-3-yl]phenyl]methyl]pyrazole-4-carboxylate] displayed a melting point of 122 to 129 °C. `COCCNC(=O)c1cnn(Cc2ccc(-c3noc(C(F)(F)F)n3)cc2)c1` [Compound 1.250, N-(2-methoxyethyl)-1-[[4-[5-(trifluoromethyl)-1,2,4-oxadiazol-3-yl]phenyl]methyl]pyrazole-4-carboxamide] came in with a melting point of 132 to 142 °C. Further, the inhibition of growth at 20 ppm in data set [1] is not below 80%. Moreover, the pest or weed control at 200 ppm in data set [2] is not below 80%.

Consider `CCOC(=O)c1cnn(Cc2ccc(-c3noc(C(F)(F)F)n3)c(F)c2)c1` [Compound 1.252, ethyl 1-[[3-fluoro-4-[5-(trifluoromethyl)-1,2,4-oxadiazol-3-yl]phenyl]methyl]pyrazole-4-carboxylate], for which the melting point was 131 to 135 °C. Consider `N#Cc1ncn(Cc2ccc(-c3noc(C(F)(F)F)n3)nc2)n1` [Compound 1.257, 1-[[6-[5-(trifluoromethyl)-1,2,4-oxadiazol-3-yl]-3-pyridyl]methyl]-1,2,4-triazole-3-carbonitrile], for which the melting point was 105 to 108 °C. Also, the inhibition of growth at 20 ppm in data set [1] is not below 80%. The molecule `CCN(CC)C(=O)c1cnn(Cc2ccc(-c3noc(C(F)(F)F)n3)cc2)c1` [Compound 1.259, N,N-diethyl-1-[[4-[5-(trifluoromethyl)-1,2,4-oxadiazol-3-yl]phenyl]methyl]pyrazole-4-carboxamide] came in with a melting point of 86 to 96 °C.

`CON(C)C(=O)c1cnn(Cc2ccc(-c3noc(C(F)(F)F)n3)cc2)c1` [Compound 1.260, N-methoxy-N-methyl-1-[[4-[5-(trifluoromethyl)-1,2,4-oxadiazol-3-yl]phenyl]methyl]pyrazole-4-carboxamide] registered a melting point of 102 to 112 °C. Regarding `CC(C)(C)OC(=O)c1cnn(Cc2ccc(-c3noc(C(F)(F)F)n3)cc2)c1` [Compound 1.262, ~{tert}-butyl 1-[[4-[5-(trifluoromethyl)-1,2,4-oxadiazol-3-yl]phenyl]methyl]pyrazole-4-carboxylate], the melting point lay within 81 to 91 °C. In addition, the inhibition of growth at 20 ppm in data set [1] was not below 80%. Besides, the pest or weed control at 200 ppm in data set [2] was not below 80%.

For `CCCOC(=O)c1cnn(Cc2ccc(-c3noc(C(F)(F)F)n3)cc2)c1` [Compound 1.264, propyl 1-[[4-[5-(trifluoromethyl)-1,2,4-oxadiazol-3-yl]phenyl]methyl]pyrazole-4-carboxylate], the melting point fell in the range of 105 to 115 °C. For `CONC(=O)c1cnn(Cc2ccc(-c3noc(C(F)(F)F)n3)cc2)c1` [Compound 1.266, ~{N}-methoxy-1-[[4-[5-(trifluoromethyl)-1,2,4-oxadiazol-3-yl]phenyl]methyl]pyrazole-4-carboxamide], the melting point lay within 128 to 138 °C. The same measure, in the same setting: the result for `CCNC(=O)c1cnn(Cc2ccc(-c3noc(C(F)(F)F)n3)cc2)c1` [Compound 1.267, ~{N}-ethyl-1-[[4-[5-(trifluoromethyl)-1,2,4-oxadiazol-3-yl]phenyl]methyl]pyrazole-4-carboxamide] reads 166 to 176 °C. In turn, `O=C(O)c1cn(Cc2ccc(-c3noc(C(F)(F)F)n3)cc2)nn1` [Compound 1.271, 1-[[4-[5-(trifluoromethyl)-1,2,4-oxadiazol-3-yl]phenyl]methyl]triazole-4-carboxylic acid] yielded a melting point of 208 to 210 °C. Besides, in data set [3], the pest or weed control at 200 ppm was not below 80%. Also, the pest or weed control at 200 ppm in data set [2] was not below 80%.

`O=C(Nc1ccc(Cl)cc1)c1cn(Cc2ccc(-c3noc(C(F)(F)F)n3)cc2)nn1` [Compound 1.282, N-(4-chlorophenyl)-1-[[4-[5-(trifluoromethyl)-1,2,4-oxadiazol-3-yl]phenyl]methyl]triazole-4-carboxamide] displayed a melting point of 233 to 235 °C. Moreover, the pest or weed control at 200 ppm in data set [2] was not below 80%. Molecule `CON=Cc1cnn(Cc2ccc(-c3noc(C(F)(F)F)n3)cc2)c1` [Compound 1.285] gave a melting point of 88 to 98 °C. In turn, `FC(F)(F)c1nc(-c2ccc(Cn3cc(C=NOCc4ccccc4)cn3)cc2)no1` [Compound 1.289, N-benzyloxy-1-[1-[[4-[5-(trifluoromethyl)-1,2,4-oxadiazol-3-yl]phenyl]methyl]pyrazol-4-yl]methanimine] returned a melting point of 75 to 85 °C. Besides, the inhibition of growth at 20 ppm in data set [1] is not below 80%. Further, the pest or weed control at 200 ppm in data set [2] is not below 80%.

Turning to `CNC(=O)c1cnnn1Cc1ccc(-c2noc(C(F)(F)F)n2)cc1` [Compound 1.291, N-methyl-3-[[4-[5-(trifluoromethyl)-1,2,4-oxadiazol-3-yl]phenyl]methyl]triazole-4-carboxamide], the melting point lay in the range of 222 to 224 °C. Further, in data set [3], the pest or weed control at 200 ppm was not below 80%. On to `Cc1cc(C)n(C(C)c2ccc(-c3noc(C(F)(F)F)n3)cc2)n1` (centres unmarked) [Compound 1.303, 3-[4-[1-(3,5-dimethylpyrazol-1-yl)ethyl]phenyl]-5-(trifluoromethyl)-1,2,4-oxadiazole], for which the inhibition of growth at 20 ppm in data set [1] was not below 80%. In addition, the pest or weed control at 200 ppm (in data set [3]; in the data set with Phakopsora pachyrhizi; in data set [2]) was not below 80% each time. With `CC1CN(Cc2ccc(-c3noc(C(F)(F)F)n3)cc2)CC(C)O1` (centres unmarked) [Compound 1.306, 2,6-dimethyl-4-[[4-[5-(trifluoromethyl)-1,2,4-oxadiazol-3-yl]phenyl]methyl]morpholine], the inhibition of growth at 20 ppm in data set [1] is not below 80%. Moreover, the pest or weed control at 200 ppm (in data set [3]; in the data set on Phakopsora pachyrhizi; in data set [2]) was not below 80% in each case. `CCOC(=O)c1cnn(CC(F)c2ccc(-c3noc(C(F)(F)F)n3)cc2)c1` (centres unmarked) [Compound 1.311, ethyl 1-[2-fluoro-2-[4-[5-(trifluoromethyl)-1,2,4-oxadiazol-3-yl]phenyl]ethyl]pyrazole-4-carboxylate] came in with a melting point of 145 to 147 °C.

In the case of `N#CC(c1ccc(-c2noc(C(F)(F)F)n2)cc1)N1CCOCC1` (centres unmarked) [Compound 1.312, 2-morpholino-2-[4-[5-(trifluoromethyl)-1,2,4-oxadiazol-3-yl]phenyl]acetonitrile], in data set [1], the inhibition of growth at 20 ppm was not below 80%. Besides, the pest or weed control at 200 ppm (in data set [3]; in the data set on Phakopsora pachyrhizi; in data set [2]) was not below 80% each time.
